± gives the uncertainty stated by the source.
Assay: xn = mol fraction of the nth substance listed

O=S1(=O)CCCC1 + CCCO
viscosity [mPa·s], 101 kPa
Settings	x1 = 0.0761	x1 = 0.1702	x1 = 0.2436	x1 = 0.3357	x1 = 0.4393	x1 = 0.5374	x1 = 0.6403	x1 = 0.7554	x1 = 0.8835
303.15 K	1.648 ± 0.018	1.731 ± 0.018	1.863 ± 0.02	2.093 ± 0.023	2.443 ± 0.028	2.894 ± 0.034	3.567 ± 0.044	4.714 ± 0.061	6.855 ± 0.094
308.15 K	1.477 ± 0.015	1.551 ± 0.016	1.671 ± 0.018	1.876 ± 0.02	2.191 ± 0.024	2.595 ± 0.03	3.198 ± 0.038	4.214 ± 0.051	6.07 ± 0.076
313.15 K	1.329 ± 0.013	1.399 ± 0.014	1.506 ± 0.016	1.691 ± 0.018	1.976 ± 0.022	2.342 ± 0.026	2.884 ± 0.033	3.788 ± 0.044	5.424 ± 0.064

Nc1ccccc1Cl + CCC(C)O
viscosity [mPa·s], 101 kPa
Settings	x1 = 0.0896	x1 = 0.1798	x1 = 0.2798	x1 = 0.3912	x1 = 0.4951	x1 = 0.5894	x1 = 0.6812	x1 = 0.7958	x1 = 0.8925
303.15 K	2.78 ± 0.6	2.94 ± 0.64	3.11 ± 0.68	3.28 ± 0.71	3.41 ± 0.74	3.51 ± 0.76	3.6 ± 0.78	3.7 ± 0.8	3.76 ± 0.82
308.15 K	2.36 ± 0.51	2.53 ± 0.55	2.69 ± 0.58	2.85 ± 0.62	2.99 ± 0.65	3.1 ± 0.67	3.19 ± 0.69	3.29 ± 0.72	3.36 ± 0.73
313.15 K	2.04 ± 0.44	2.21 ± 0.48	2.37 ± 0.52	2.53 ± 0.55	2.66 ± 0.58	2.77 ± 0.6	2.86 ± 0.62	2.96 ± 0.64	3.03 ± 0.66
318.15 K	1.77 ± 0.38	1.94 ± 0.42	2.09 ± 0.45	2.24 ± 0.49	2.37 ± 0.52	2.47 ± 0.54	2.57 ± 0.56	2.68 ± 0.58	2.74 ± 0.6

CCCCOCCOCCO + CCCO
viscosity [mPa·s], 101 kPa
Settings	298.15 K	308.15 K	318.15 K
x1 = 0.011	1.95 ± 0.018	1.525 ± 0.014	1.246 ± 0.012
x1 = 0.042	2.019 ± 0.018	1.576 ± 0.015	1.293 ± 0.012
x1 = 0.074	2.098 ± 0.019	1.633 ± 0.015	1.337 ± 0.013
x1 = 0.1191	2.202 ± 0.02	1.711 ± 0.016	1.409 ± 0.013
x1 = 0.1629	2.325 ± 0.022	1.802 ± 0.017	1.488 ± 0.014
x1 = 0.2086	2.446 ± 0.023	1.889 ± 0.018	1.576 ± 0.015
x1 = 0.2587	2.587 ± 0.025	2.024 ± 0.02	1.669 ± 0.016
x1 = 0.3152	2.748 ± 0.027	2.149 ± 0.021	1.767 ± 0.018
x1 = 0.3289	2.787 ± 0.027	2.179 ± 0.022	1.795 ± 0.018
x1 = 0.3796	2.959 ± 0.03	2.283 ± 0.023	1.89 ± 0.019
x1 = 0.4568	3.213 ± 0.034	2.435 ± 0.026	2.034 ± 0.021
x1 = 0.5093	3.371 ± 0.036	2.548 ± 0.028	2.123 ± 0.022
x1 = 0.5833	3.615 ± 0.04	2.714 ± 0.03	2.263 ± 0.025
x1 = 0.6316	3.764 ± 0.043	2.814 ± 0.032	2.346 ± 0.026
x1 = 0.6882	3.928 ± 0.046	2.932 ± 0.034	2.442 ± 0.028
x1 = 0.7604	4.153 ± 0.05	3.085 ± 0.037	2.564 ± 0.03
x1 = 0.8285	4.361 ± 0.054	3.228 ± 0.04	2.677 ± 0.032
x1 = 0.9045	4.598 ± 0.059	3.388 ± 0.044	2.797 ± 0.035
x1 = 0.9511	4.734 ± 0.062	3.481 ± 0.046	2.875 ± 0.037

O=C[C@H](O)[C@H](O)[C@H](O)CO + C[N+](C)(C)CCO.[Cl-]
100 kPa, x2 = 0.6
Settings	viscosity [mPa·s]
313.2 K	575.5 ± 30
318.2 K	374.3 ± 19

O=S1(=O)CCCC1 + C1COCCO1
viscosity [mPa·s], 101 kPa
Settings	x1 = 0.0809	x1 = 0.1742	x1 = 0.2786	x1 = 0.3855	x1 = 0.4739	x1 = 0.5744	x1 = 0.6247	x1 = 0.7169	x1 = 0.8462	x1 = 0.9062
303.15 K	1.276 ± 0.012	1.517 ± 0.015	1.854 ± 0.018	2.293 ± 0.022	2.756 ± 0.027	3.428 ± 0.033	3.841 ± 0.037	4.786 ± 0.047	6.656 ± 0.063	7.852 ± 0.073
313.15 K	1.086 ± 0.011	1.284 ± 0.013	1.558 ± 0.015	1.912 ± 0.018	2.28 ± 0.022	2.809 ± 0.027	3.13 ± 0.03	3.861 ± 0.037	5.275 ± 0.051	6.164 ± 0.059
323.15 K	0.9369 ± 0.0093	1.104 ± 0.011	1.332 ± 0.013	1.622 ± 0.016	1.922 ± 0.019	2.348 ± 0.023	2.605 ± 0.025	3.182 ± 0.03	4.278 ± 0.041	4.942 ± 0.048

Nc1ccccc1Cl + ClC(Cl)(Cl)Cl
viscosity [mPa·s], 100 kPa
Settings	x2 = 0.1011	x2 = 0.1916	x2 = 0.2901	x2 = 0.3811	x2 = 0.4923	x2 = 0.5989	x2 = 0.6911	x2 = 0.7741	x2 = 0.8897
298.15 K	3.882 ± 0.082	3.589 ± 0.076	3.268 ± 0.069	2.97 ± 0.063	2.604 ± 0.055	2.25 ± 0.047	1.942 ± 0.041	1.664 ± 0.035	1.273 ± 0.027
303.15 K	3.532 ± 0.075	3.269 ± 0.069	2.981 ± 0.063	2.713 ± 0.057	2.382 ± 0.05	2.063 ± 0.044	1.785 ± 0.038	1.533 ± 0.032	1.179 ± 0.025
308.15 K	3.158 ± 0.067	2.927 ± 0.062	2.675 ± 0.057	2.439 ± 0.052	2.149 ± 0.046	1.868 ± 0.04	1.622 ± 0.034	1.4 ± 0.03	1.086 ± 0.023
313.15 K	2.837 ± 0.06	2.634 ± 0.056	2.411 ± 0.051	2.203 ± 0.047	1.947 ± 0.041	1.699 ± 0.036	1.482 ± 0.031	1.284 ± 0.027	1.005 ± 0.021
318.15 K	2.566 ± 0.054	2.387 ± 0.051	2.189 ± 0.046	2.004 ± 0.042	1.776 ± 0.038	1.554 ± 0.033	1.361 ± 0.029	1.185 ± 0.025	0.934 ± 0.02

NCCCO + CCCCCCn1cc[n+](C)c1.F[B-](F)(F)F
101 kPa
Settings	viscosity [mPa·s]
303.15 K, x2 = 0.3217	34.55 ± 1.4
308.15 K, x2 = 0.4942	36.45 ± 1.5

CC(O)CC(C)(C)O (stereo not drawn) + Clc1ccccc1
viscosity [mPa·s], 101 kPa
Settings	x1 = 0.0989	x1 = 0.1989	x1 = 0.2931	x1 = 0.3916	x1 = 0.4927	x1 = 0.5867	x1 = 0.6888	x1 = 0.7938	x1 = 0.8999
308.15 K	0.7755 ± 0.078	0.9332 ± 0.093	1.164 ± 0.12	1.513 ± 0.15	2.151 ± 0.22	2.823 ± 0.28	4.238 ± 0.42	6.453 ± 0.65	10.85 ± 1.1
318.15 K	0.6372 ± 0.064	0.7412 ± 0.074	0.9438 ± 0.095	1.242 ± 0.12	1.814 ± 0.18	2.278 ± 0.23	3.416 ± 0.34	5.241 ± 0.52	9.228 ± 0.92

CO/N=C(\C(=O)N[C@@H]1C(=O)N2C(C(=O)O)=C(C[N+]3(C)CCCC3)CS[C@H]12)c1csc(N)n1.Cl.[Cl-] + O
Settings	viscosity [mPa·s]
293.15 K, 101.33 kPa, x1 = 0.002414	1.235 ± 0.026

— the CheMixHub viscosity set
